ChEMBL document CHEMBL1944594, “Synthesis, biological evaluation, and docking studies of tetrahydrofuran- cyclopentanone- and cyclopentanol-based ligands acting at adrenergic α₁- and serotonine 5-HT1A receptors” (J Med Chem, 2012)

What was measured:
[1] = molecular target: T1, Alpha-1A adrenergic receptor (Homo sapiens, UniProt P35348); assay: biochemical
T1 sequence (P35348 whole entry): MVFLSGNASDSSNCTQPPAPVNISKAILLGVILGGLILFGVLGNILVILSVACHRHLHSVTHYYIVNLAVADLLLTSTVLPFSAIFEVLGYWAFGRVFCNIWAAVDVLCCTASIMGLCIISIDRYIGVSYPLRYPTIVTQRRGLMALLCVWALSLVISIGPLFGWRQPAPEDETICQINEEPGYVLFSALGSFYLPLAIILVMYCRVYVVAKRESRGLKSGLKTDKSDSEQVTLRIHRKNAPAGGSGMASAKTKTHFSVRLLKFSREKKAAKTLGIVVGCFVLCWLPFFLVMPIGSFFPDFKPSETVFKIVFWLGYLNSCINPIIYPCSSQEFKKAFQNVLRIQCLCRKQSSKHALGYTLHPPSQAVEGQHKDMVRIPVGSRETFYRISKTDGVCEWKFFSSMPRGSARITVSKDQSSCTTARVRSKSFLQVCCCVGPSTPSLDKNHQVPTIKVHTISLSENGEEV
Description: Displacement of [3H]prazosin from human recombinant alpha1A adrenoceptor expressed in CHO cells after 30 mins by liquid scintillation counting

[2] = molecular target: T2, Alpha-1D adrenergic receptor (Rattus norvegicus) (UniProt P23944); assay: Antagonist activity at Alpha-1D adrenoceptor in Wistar rat endothelium denuded thoracic aorta assessed as inhibition of (-)-noradrenalilne-induced contraction after 30 mins; assay type: functional, tissue-based
T2 sequence (whole entry): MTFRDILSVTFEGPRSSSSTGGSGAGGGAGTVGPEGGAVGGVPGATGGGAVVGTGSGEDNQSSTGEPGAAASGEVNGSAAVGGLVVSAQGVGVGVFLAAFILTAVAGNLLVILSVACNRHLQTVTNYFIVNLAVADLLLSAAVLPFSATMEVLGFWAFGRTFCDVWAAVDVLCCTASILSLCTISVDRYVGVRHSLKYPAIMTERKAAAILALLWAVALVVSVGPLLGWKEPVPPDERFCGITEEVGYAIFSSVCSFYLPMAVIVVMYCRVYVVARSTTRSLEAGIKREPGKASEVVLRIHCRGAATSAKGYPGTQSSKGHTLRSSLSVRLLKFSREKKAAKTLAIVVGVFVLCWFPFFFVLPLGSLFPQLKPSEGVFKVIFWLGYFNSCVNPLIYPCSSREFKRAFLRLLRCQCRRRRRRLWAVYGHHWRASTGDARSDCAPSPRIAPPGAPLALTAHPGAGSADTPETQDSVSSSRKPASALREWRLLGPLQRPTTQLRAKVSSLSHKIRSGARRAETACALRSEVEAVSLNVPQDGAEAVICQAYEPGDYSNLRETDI

[3] = molecular target: T3, Alpha-1B adrenergic receptor (Rattus norvegicus) (UniProt P15823); assay: Antagonist activity at Alpha-1B receptor in Wistar rat spleen assessed as inhibition of (-)-phenylephrine-induced contraction after 30 mins; assay type: functional, tissue-based
T3 sequence (whole entry): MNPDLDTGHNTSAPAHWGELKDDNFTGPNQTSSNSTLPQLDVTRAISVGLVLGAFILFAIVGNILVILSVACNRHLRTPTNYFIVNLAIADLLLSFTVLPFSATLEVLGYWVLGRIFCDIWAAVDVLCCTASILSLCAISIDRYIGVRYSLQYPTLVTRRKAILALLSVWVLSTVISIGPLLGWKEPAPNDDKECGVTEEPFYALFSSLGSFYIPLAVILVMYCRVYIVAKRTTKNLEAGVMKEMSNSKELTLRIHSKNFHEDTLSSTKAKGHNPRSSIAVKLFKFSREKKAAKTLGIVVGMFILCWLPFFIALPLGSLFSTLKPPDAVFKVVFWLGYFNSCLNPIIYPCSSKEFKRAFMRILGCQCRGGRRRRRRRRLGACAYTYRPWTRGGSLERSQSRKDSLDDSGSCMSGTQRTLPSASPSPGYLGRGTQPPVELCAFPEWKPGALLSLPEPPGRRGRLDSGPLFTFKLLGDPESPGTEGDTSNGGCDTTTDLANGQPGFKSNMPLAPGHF

[4] = molecular target: T4, 5-hydroxytryptamine receptor 1A (Homo sapiens, UniProt P08908); assay: biochemical
T4 sequence (P08908 whole entry): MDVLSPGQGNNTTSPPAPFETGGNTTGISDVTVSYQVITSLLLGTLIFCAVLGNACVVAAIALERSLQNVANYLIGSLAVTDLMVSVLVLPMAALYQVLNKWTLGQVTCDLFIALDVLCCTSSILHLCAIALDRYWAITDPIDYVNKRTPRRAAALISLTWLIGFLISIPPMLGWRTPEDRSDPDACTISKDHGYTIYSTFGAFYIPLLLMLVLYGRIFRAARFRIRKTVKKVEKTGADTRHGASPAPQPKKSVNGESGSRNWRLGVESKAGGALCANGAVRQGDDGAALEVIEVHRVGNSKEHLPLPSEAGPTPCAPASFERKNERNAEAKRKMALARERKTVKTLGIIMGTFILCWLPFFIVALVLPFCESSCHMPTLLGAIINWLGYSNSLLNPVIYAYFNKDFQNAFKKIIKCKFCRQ

[5] = molecular target: T5, Alpha-1D adrenergic receptor (Homo sapiens, UniProt P25100); assay: biochemical
T5 sequence (P25100 whole entry): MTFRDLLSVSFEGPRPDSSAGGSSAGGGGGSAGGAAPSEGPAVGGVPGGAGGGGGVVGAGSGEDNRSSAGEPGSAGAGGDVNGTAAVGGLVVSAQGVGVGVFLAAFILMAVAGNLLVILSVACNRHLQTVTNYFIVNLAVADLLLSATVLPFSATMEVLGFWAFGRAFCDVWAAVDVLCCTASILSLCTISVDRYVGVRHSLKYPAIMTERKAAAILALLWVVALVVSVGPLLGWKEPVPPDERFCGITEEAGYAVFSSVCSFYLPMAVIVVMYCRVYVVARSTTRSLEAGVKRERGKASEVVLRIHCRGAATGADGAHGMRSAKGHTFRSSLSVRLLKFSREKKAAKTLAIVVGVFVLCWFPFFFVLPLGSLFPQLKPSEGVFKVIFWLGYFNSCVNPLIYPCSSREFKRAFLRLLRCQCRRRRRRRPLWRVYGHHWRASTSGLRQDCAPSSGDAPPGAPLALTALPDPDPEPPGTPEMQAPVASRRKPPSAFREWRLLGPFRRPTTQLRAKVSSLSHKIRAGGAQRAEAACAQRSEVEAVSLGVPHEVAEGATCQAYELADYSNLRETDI
Description: Displacement of [3H]prazosin from human recombinant Alpha-1D adrenoceptor expressed in CHO cells after 30 mins by liquid scintillation counting

[6] = molecular target: T6, Alpha-1A adrenergic receptor (Rattus norvegicus) (UniProt P43140); assay: Antagonist activity at alpha1A adrenoceptor in Wistar rat prostatic vas deferens assessed as inhibition of (-)-noradrenalilne-induced contraction after 30 mins; assay type: functional, tissue-based
T6 sequence (whole entry): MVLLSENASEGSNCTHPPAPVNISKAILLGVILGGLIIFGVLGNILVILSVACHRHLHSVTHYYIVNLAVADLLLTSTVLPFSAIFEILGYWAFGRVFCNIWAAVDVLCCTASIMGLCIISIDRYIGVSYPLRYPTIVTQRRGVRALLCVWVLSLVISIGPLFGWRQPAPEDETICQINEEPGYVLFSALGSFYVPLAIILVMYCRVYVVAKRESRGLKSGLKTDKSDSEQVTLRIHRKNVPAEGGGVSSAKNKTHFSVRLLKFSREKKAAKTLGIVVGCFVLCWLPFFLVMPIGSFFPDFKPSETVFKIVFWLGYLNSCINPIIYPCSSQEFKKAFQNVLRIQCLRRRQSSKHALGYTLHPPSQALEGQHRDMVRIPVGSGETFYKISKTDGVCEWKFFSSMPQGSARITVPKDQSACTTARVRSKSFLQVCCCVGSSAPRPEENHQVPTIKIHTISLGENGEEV

[7] = molecular target: T7, 5-hydroxytryptamine receptor 1A (Homo sapiens) (UniProt P08908); assay: Agonist activity at human recombinant 5HT1A receptor expressed in HeLa cells preincubated for 20 mins by [35S]GTPgammaS binding assay relative to 8-OH-DPAT; assay type: functional, cell-based
T7 sequence (whole entry): T4 sequence (P08908 whole entry)

[8] = molecular target: T7, 5-hydroxytryptamine receptor 1A (Homo sapiens); conditions: HeLa
[9] = molecular target: T8, Alpha-1B adrenergic receptor (Homo sapiens, UniProt P35368); assay: biochemical
T8 sequence (P35368 whole entry): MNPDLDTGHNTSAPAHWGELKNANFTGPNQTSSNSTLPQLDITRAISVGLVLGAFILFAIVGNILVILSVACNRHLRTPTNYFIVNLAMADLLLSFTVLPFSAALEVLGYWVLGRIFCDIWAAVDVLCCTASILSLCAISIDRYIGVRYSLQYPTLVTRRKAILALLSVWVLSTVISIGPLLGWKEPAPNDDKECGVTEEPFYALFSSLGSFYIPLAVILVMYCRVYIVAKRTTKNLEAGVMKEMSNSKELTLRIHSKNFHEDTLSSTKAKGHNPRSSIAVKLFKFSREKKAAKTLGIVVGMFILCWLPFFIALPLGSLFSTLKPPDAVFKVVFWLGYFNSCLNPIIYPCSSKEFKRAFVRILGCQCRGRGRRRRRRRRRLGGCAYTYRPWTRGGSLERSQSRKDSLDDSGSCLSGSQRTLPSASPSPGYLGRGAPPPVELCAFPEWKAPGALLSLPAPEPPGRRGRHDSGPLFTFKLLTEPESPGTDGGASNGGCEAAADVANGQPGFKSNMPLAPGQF
Description: Displacement of [3H]prazosin from human recombinant alpha1B adrenoceptor expressed in CHO cells after 30 mins by liquid scintillation counting

| Ki [1] | pKb [2] | pKb [3] | Ki [4] | Ki [5] | pKb [6] | Emax [7] | pD2 [8] | Ki [9] | Structure (SMILES) |
| --- | --- | --- | --- | --- | --- | --- | --- | --- | --- |
| 38.9 nM | 7.21 | 7.25 | 0.562 nM | 67.6 nM | 5.62 | 47.1% | 9.03 | 166 nM | COc1ccccc1N1CCN(C[C@H]2CCC(c3ccccc3)(c3ccccc3)[C@H]2O)CC1 (relative stereo) |
| > 1000 nM | 6.88 | 6.26 | 9.33 nM | > 1000 nM | 5.23 | 46.5% | 7.81 | > 1000 nM | O[C@@H]1[C@H](CNCCOc2ccccc2)CCC1(c1ccccc1)c1ccccc1 (relative stereo) |
|  |  | 7.48 |  |  |  |  | 9.27 |  | COc1ccccc1N1CCN(CCN2C(=O)CC3(CCCC3)CC2=O)CC1 |
| > 1000 nM | 6.54 | 6.92 | 3.47 nM | 141 nM | 6.39 | 39.4% | 8.37 | > 1000 nM | COc1ccccc1OCCNCC1CCC(c2ccccc2)(c2ccccc2)C1=O (centres undefined) |
|  | 8.65 | 7.36 |  |  | 7.53 | 31.6% | 7.36 |  | COc1ccccc1OCCNCC1COC(c2ccccc2)(c2ccccc2)O1 (centres undefined) |
| 0.646 nM | 7.5 | 6.85 | 4.37 nM | 3.89 nM | 7.65 |  |  | 8.91 nM | COc1ccccc1N1CCN(CC2CCC(c3ccccc3)(c3ccccc3)O2)CC1 (centres undefined) |
| 39.8 nM | 6.43 | 7.54 | 3.47 nM | 155 nM | 6.28 |  |  | 141 nM | COc1ccccc1N1CCN(CC2CCC(c3ccccc3)(c3ccccc3)C2=O)CC1 (centres undefined) |
|  | 8.37 | 5.86 |  |  | 6.16 | 24.4% | 8.8 |  | c1ccc(OCCNCC2COC(c3ccccc3)(c3ccccc3)O2)cc1 (centres undefined) |
| 53.7 nM | 7.21 | 6.2 | 2 nM | 31.6 nM | 6.26 |  |  | 123 nM | c1ccc(OCCNCC2CCC(c3ccccc3)(c3ccccc3)O2)cc1 (centres undefined) |
| 26.9 nM | 8.09 | 6.92 | 0.832 nM | 6.31 nM | 7.24 | 53.4% | 9.04 | 39.8 nM | COc1ccccc1OCCNCC1CCC(c2ccccc2)(c2ccccc2)O1 (centres undefined) |
| 110 nM | 8.42 | 7.7 | 0.324 nM | 5.75 nM | 6.57 | 64.1% | 8.96 | 74.1 nM | COc1ccccc1OCCNC[C@H]1CCC(c2ccccc2)(c2ccccc2)[C@@H]1O (relative stereo) |
| > 1000 nM | 6.3 | 6.95 | 10.5 nM | 389 nM | < 5 | 25.5% | 7.44 | > 1000 nM | O=C1C(CNCCOc2ccccc2)CCC1(c1ccccc1)c1ccccc1 (centres undefined) |
| > 1000 nM | 6.86 | 6.67 | 9.55 nM | 93.3 nM | 5.43 | 64.9% | 7.94 | 288 nM | O[C@@H]1[C@@H](CNCCOc2ccccc2)CCC1(c1ccccc1)c1ccccc1 (relative stereo) |
| 44.7 nM | 6.82 | 7.14 | 0.794 nM | 67.6 nM | 6.39 | 37.3% | 8.74 | 245 nM | COc1ccccc1N1CCN(C[C@H]2CCC(c3ccccc3)(c3ccccc3)[C@@H]2O)CC1 |
| 0.263 nM | 8.14 | 6.69 | 22.9 nM | 0.813 nM | 8.24 | 16.2% | 8.3 | 6.76 nM | COc1ccccc1N1CCN(CC2COC(c3ccccc3)(c3ccccc3)O2)CC1 (centres undefined) |
